These results are taken from patent publication US9771368B2, “18F-labelled folates” (priority 2007, dated 2017).

In series [1] the target is T1, folate receptor (Homo sapiens, UniProt P15328).
T1 construct: endogenous in cells; host or cells: KB tumour xenografts in nude mice
The series is described as follows: ex vivo biodistribution studies in nude mice bearing KB xenografts tumors. The following applies: nude mice, KB xenograft tumors; ~2 MBq radiotracer; blockade group 200 μg natural folic acid 10 min prior; 90 min post injection. The method, then:
(§1) 2′-[^18F]fluoro-folic acid was applied in ex vivo biodistribution studies using eight nude mice bearing KB xenografts tumors. ˜2 MBq of the radiotracer were injected into each animal. In a blockade group 200 μg natural folic acid was injected 10 min prior to the radiotracer. The animals were scarified 90 min post injection.

Series [2] has as its system folate receptor. The description is as above. The method, then: as §1
The subject of series [3] is folate receptor. In words: in vivo PET imaging in nude mice bearing KB xenografts tumors. The procedure: In vivo PET imaging using the 2′-[^18F]fluoro-folic acid was performed in nude mice bearing KB xenografts tumors. Ca. 10 MBq of the radiotracer were injected into each animal. In the blockade group 200 μg natural folic acid was injected 10 min prior to the radiotracer. The PET scans were acquired from 30 min to 90 min post injection.

T1 sequence (P15328 25-234 limits assumed): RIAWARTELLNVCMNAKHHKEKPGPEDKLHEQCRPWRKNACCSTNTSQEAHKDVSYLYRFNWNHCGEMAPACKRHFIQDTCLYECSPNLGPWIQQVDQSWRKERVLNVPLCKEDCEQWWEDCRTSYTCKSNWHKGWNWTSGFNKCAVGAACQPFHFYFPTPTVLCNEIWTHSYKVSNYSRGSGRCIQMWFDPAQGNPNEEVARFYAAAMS

On to `Nc1nc2ncc(CNc3ccc(C(=O)N[C@@H](CCC(=O)O)C(=O)O)c([18F])c3)nc2c(=O)[nH]1` [2′-[^18F]fluoro-folic acid], for which the “specific uptake of the radiotracer in folate receptor-positive KB tumors, ratio of specific blockade” value at folate receptor [1] was 86.6%. In addition, the “uptake in folate receptor-positive tissues (FIG. 1)” value in the series with folate receptor [2] (ex vivo biodistribution, nude mice bearing KB xenografts) is on record as “high specific uptake”. Further, the “specific uptake in the kidneys, specific blockade” value in the series with folate receptor [2] (nude mice, kidneys, ~2 MBq radiotracer, blockade group 200 μg natural folic acid 10 min prior, 90 min post injection) came out at 95.5%. For the same compound, in the series on folate receptor [3] (PET, kidney cortex, 30-90 min post injection), the “uptake of the radiotracer in the kidney cortex” value is recorded as “high specific uptake”. Moreover, the “uptake of the radiotracer in the kidney medulla” value in the series on folate receptor [3] (PET, kidney medulla, 30-90 min post injection) is on record as “no uptake”. The “specificity of uptake (blockade by natural folic acid)” value in the series on folate receptor [3] (ca. 10 MBq, blockade group 200 μg natural folic acid 10 min prior, PET 30-90 min post injection) was “highly specific and blocked by natural folic acid”.
